The target of this experiment is T1, CXCR4 (Homo sapiens, UniProt P61073).
T1 construct: Nanoluc-CXCR4
Description: NanoBRET competition binding against CXCL12-AF647 in transfected HEK293T cells; anti-IFN effect lost with CXCR4 siRNA. Type of experiment: cell-based.

As a reminder, the Ki is a measure of affinity in units of concentration, obtained from inhibition or displacement.

T1 sequence (P61073 whole entry): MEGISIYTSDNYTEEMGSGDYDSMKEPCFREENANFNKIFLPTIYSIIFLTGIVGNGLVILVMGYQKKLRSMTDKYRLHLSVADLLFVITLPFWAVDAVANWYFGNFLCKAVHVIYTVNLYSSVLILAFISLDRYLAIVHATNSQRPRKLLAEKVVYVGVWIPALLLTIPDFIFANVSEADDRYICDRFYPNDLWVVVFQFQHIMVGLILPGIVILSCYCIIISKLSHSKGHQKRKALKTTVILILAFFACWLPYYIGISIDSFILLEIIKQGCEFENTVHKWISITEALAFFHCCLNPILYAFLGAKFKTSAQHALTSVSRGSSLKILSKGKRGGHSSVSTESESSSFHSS

The compound `NC(=NCc1ccc(Cl)cc1)SCCCc1cnc[nH]1` [CB, clobenpropit] had a Ki of 18.6 µM.

The record behind these values is article PMC11682962, “The histamine analogue clobenpropit modulates IRF7 phosphorylation and interferon production by targeting CXCR4 in systemic lupus erythematosus models” (Frontiers in Immunology, 2024).
